In publication PMC10327353 (Breast Cancer Research : BCR, 2023):

Assay: Phase 1 study: safety and tolerability
Type: in vivo
Experimental: The maximum tolerated dose (MTD) of DZD1516 was defined based on safety data and the Bayesian optimal interval (BOIN) design (Additional file 1). The definition of DLT is provided in Additional file 1.
The AE grading was assessed according to the NCI-Common Terminology Criteria for Adverse Events (CTCAE) (version 5.0) and was monitored until 28 days after the last dose.
Eligible patients received single oral dosing of DZD1516 on Cycle 0 Day 1 (C0D1), followed by a 7-day washout. Twice daily oral dosing (bid) of DZD1516 was commenced from C1D1 in a continuous 21-day cycle until disease progression, unacceptable toxicity, or withdrawal of consent. All doses were taken under fed conditions (within 30 minutes after a meal).
Planned dosing consisted of 25, 50, 100, 200, 300, and 400 mg. Each dose escalation cohort will comprise a minimum of three and a maximum of six evaluable patients (except only one patient in the starting dose cohort). The maximum tolerated dose of DZD1516 was defined according to safety data and the Bayesian optimal interval (BOIN) design. Dose escalation/de-escalation rule with target toxicity rate for the MTD is 0.30 with interval of (0.20, 0.33).
DLTs were any adverse event (AE) not clearly attributable to the patient’s disease, including ≥ grade 4 hematological toxicities present for ≥ 4 days, grade 3 thrombocytopenia with bleeding, or grade 4 thrombocytopenia lasting for > 5 days, ≥ grade 3 non-hematological toxicities that is dose-limiting in the judgment of the investigators. Any other toxicity that is greater than that at baseline, is clinically significant or unacceptable, and is judged to be a DLT by the SRC. Exceptions included alopecia of any grade and isolated grade 3 laboratory change without clinical sequelae or clinical significance.
Safety evaluations were conducted at screening, on Day 1, 8, and 15 of Cycle 1, on Day 1 of each subsequent treatment cycle, at the end-of-treatment visit, and clinically indicated. Safety assessments included clinical laboratory measurements (hematology, chemistry, coagulation, and urinalysis), electrocardiogram (ECG), Echocardiogram/MUGA scan, ECOG performance status, vital signs, and physical examinations.

**Q.** What does the source list for COc1cc(O[C@H]2CCN(C)CC2(F)F)c2c(Nc3ccc(Oc4ccn5ncnc5c4)c(C)c3)ncnc2c1 [DZD1516]?
**A.** Alanine aminotransferase increased, Any Grade (25 mg (N = 1)): 0 (0.0) n (%); Alanine aminotransferase increased, ≥ Grade 3 (25 mg (N = 1)): 0 (0.0) n (%); Anemia, Any Grade (25 mg (N = 1)): 0 (0.0) n (%); Anemia, ≥ Grade 3 (25 mg (N = 1)): 0 (0.0) n (%); Any TEAE: Grade 3 (25 mg (N = 1)): 0 (0.0) n (%); Any TEAE: Leading to death (25 mg (N = 1)): 0 (0.0) n (%); Any TEAE: Leading to dose reduction (25 mg (N = 1)): 0 (0.0) n (%); Any TEAE: Leading to treatment discontinuation (25 mg (N = 1)): 0 (0.0) n (%); Any TEAE: Leading to treatment interruption (25 mg (N = 1)): 0 (0.0) n (%); Any TEAE: SAE (25 mg (N = 1)): 0 (0.0) n (%); Aspartate aminotransferase increased, Any Grade (25 mg (N = 1)): 0 (0.0) n (%); Aspartate aminotransferase increased, ≥ Grade 3 (25 mg (N = 1)): 0 (0.0) n (%); Blood and lymphatic system disorders, Any Grade (25 mg (N = 1)): 0 (0.0) n (%); Blood and lymphatic system disorders, ≥ Grade 3 (25 mg (N = 1)): 0 (0.0) n (%); Blood bilirubin increased, Any Grade (25 mg (N = 1)): 1 (100.0) n (%); Blood bilirubin increased, ≥ Grade 3 (25 mg (N = 1)): 0 (0.0) n (%); Cardiac disorders, Any Grade (25 mg (N = 1)): 0 (0.0) n (%); Cardiac disorders, ≥ Grade 3 (25 mg (N = 1)): 0 (0.0) n (%); Constipation, Any Grade (25 mg (N = 1)): 0 (0.0) n (%); Constipation, ≥ Grade 3 (25 mg (N = 1)): 0 (0.0) n (%); Decreased appetite, Any Grade (25 mg (N = 1)): 0 (0.0) n (%); Decreased appetite, ≥ Grade 3 (25 mg (N = 1)): 0 (0.0) n (%); Dizziness, Any Grade (25 mg (N = 1)): 0 (0.0) n (%); Dizziness, ≥ Grade 3 (25 mg (N = 1)): 0 (0.0) n (%); Drug-related TEAE: Grade 3 (25 mg (N = 1)): 0 (0.0) n (%); Drug-related TEAE: Leading to death (25 mg (N = 1)): 0 (0.0) n (%); Drug-related TEAE: Leading to dose reduction (25 mg (N = 1)): 0 (0.0) n (%); Drug-related TEAE: Leading to treatment discontinuation (25 mg (N = 1)): 0 (0.0) n (%); Drug-related TEAE: Leading to treatment interruption (25 mg (N = 1)): 0 (0.0) n (%); Drug-related TEAE: SAE (25 mg (N = 1)): 0 (0.0) n (%); Fatigue, Any Grade (25 mg (N = 1)): 0 (0.0) n (%); Fatigue, ≥ Grade 3 (25 mg (N = 1)): 0 (0.0) n (%); Gastrointestinal disorders, Any Grade (25 mg (N = 1)): 0 (0.0) n (%); Gastrointestinal disorders, ≥ Grade 3 (25 mg (N = 1)): 0 (0.0) n (%); General disorders and administration site conditions, Any Grade (25 mg (N = 1)): 0 (0.0) n (%); General disorders and administration site conditions, ≥ Grade 3 (25 mg (N = 1)): 0 (0.0) n (%); Headache, Any Grade (25 mg (N = 1)): 0 (0.0) n (%); Headache, ≥ Grade 3 (25 mg (N = 1)): 0 (0.0) n (%); Hemoglobin decreased, Any Grade (25 mg (N = 1)): 0 (0.0) n (%); Hemoglobin decreased, ≥ Grade 3 (25 mg (N = 1)): 0 (0.0) n (%); Investigations, Any Grade (25 mg (N = 1)): 1 (100.0) n (%); Investigations, ≥ Grade 3 (25 mg (N = 1)): 0 (0.0) n (%); Lipase increased, Any Grade (25 mg (N = 1)): 0 (0.0) n (%); Lipase increased, ≥ Grade 3 (25 mg (N = 1)): 0 (0.0) n (%); Malaise, Any Grade (25 mg (N = 1)): 0 (0.0) n (%); Malaise, ≥ Grade 3 (25 mg (N = 1)): 0 (0.0) n (%); Metabolism and nutrition disorders, Any Grade (25 mg (N = 1)): 0 (0.0) n (%); Metabolism and nutrition disorders, ≥ Grade 3 (25 mg (N = 1)): 0 (0.0) n (%); Musculoskeletal and connective tissue disorders, Any Grade (25 mg (N = 1)): 0 (0.0) n (%); Musculoskeletal and connective tissue disorders, ≥ Grade 3 (25 mg (N = 1)): 0 (0.0) n (%); Nausea, Any Grade (25 mg (N = 1)): 0 (0.0) n (%); Nausea, ≥ Grade 3 (25 mg (N = 1)): 0 (0.0) n (%); Nervous system disorders, Any Grade (25 mg (N = 1)): 0 (0.0) n (%); Nervous system disorders, ≥ Grade 3 (25 mg (N = 1)): 0 (0.0) n (%); Participants with any TEAE, Any Grade (25 mg (N = 1)): 1 (100.0) n (%); Participants with any TEAE, ≥ Grade 3 (25 mg (N = 1)): 0 (0.0) n (%); Platelet count decreased, Any Grade (25 mg (N = 1)): 0 (0.0) n (%); Platelet count decreased, ≥ Grade 3 (25 mg (N = 1)): 0 (0.0) n (%); Proteinuria, Any Grade (25 mg (N = 1)): 0 (0.0) n (%); Proteinuria, ≥ Grade 3 (25 mg (N = 1)): 0 (0.0) n (%); Renal and urinary disorders, Any Grade (25 mg (N = 1)): 0 (0.0) n (%); Renal and urinary disorders, ≥ Grade 3 (25 mg (N = 1)): 0 (0.0) n (%); Subjects with any TEAE (25 mg (N = 1)): 1 (100.0) n (%); Subjects with any drug-related TEAE (25 mg (N = 1)): 1 (100.0) n (%); Vomiting, Any Grade (25 mg (N = 1)): 0 (0.0) n (%); Vomiting, ≥ Grade 3 (25 mg (N = 1)): 0 (0.0) n (%); White blood cell count decreased, Any Grade (25 mg (N = 1)): 0 (0.0) n (%); White blood cell count decreased, ≥ Grade 3 (25 mg (N = 1)): 0 (0.0) n (%); Alanine aminotransferase increased, Any Grade (50 mg (N = 4)): 1 (25.0) n (%); Alanine aminotransferase increased, ≥ Grade 3 (50 mg (N = 4)): 0 (0.0) n (%); Anemia, Any Grade (50 mg (N = 4)): 0 (0.0) n (%); Anemia, ≥ Grade 3 (50 mg (N = 4)): 0 (0.0) n (%); Any TEAE: Grade 3 (50 mg (N = 4)): 0 (0.0) n (%); Any TEAE: Leading to death (50 mg (N = 4)): 0 (0.0) n (%); Any TEAE: Leading to dose reduction (50 mg (N = 4)): 0 (0.0) n (%); Any TEAE: Leading to treatment discontinuation (50 mg (N = 4)): 0 (0.0) n (%); Any TEAE: Leading to treatment interruption (50 mg (N = 4)): 0 (0.0) n (%); Any TEAE: SAE (50 mg (N = 4)): 0 (0.0) n (%); Aspartate aminotransferase increased, Any Grade (50 mg (N = 4)): 1 (25.0) n (%); Aspartate aminotransferase increased, ≥ Grade 3 (50 mg (N = 4)): 0 (0.0) n (%); Blood and lymphatic system disorders, Any Grade (50 mg (N = 4)): 0 (0.0) n (%); Blood and lymphatic system disorders, ≥ Grade 3 (50 mg (N = 4)): 0 (0.0) n (%); Blood bilirubin increased, Any Grade (50 mg (N = 4)): 0 (0.0) n (%); Blood bilirubin increased, ≥ Grade 3 (50 mg (N = 4)): 0 (0.0) n (%); Cardiac disorders, Any Grade (50 mg (N = 4)): 0 (0.0) n (%); Cardiac disorders, ≥ Grade 3 (50 mg (N = 4)): 0 (0.0) n (%); Constipation, Any Grade (50 mg (N = 4)): 0 (0.0) n (%); Constipation, ≥ Grade 3 (50 mg (N = 4)): 0 (0.0) n (%); Decreased appetite, Any Grade (50 mg (N = 4)): 0 (0.0) n (%); Decreased appetite, ≥ Grade 3 (50 mg (N = 4)): 0 (0.0) n (%); Dizziness, Any Grade (50 mg (N = 4)): 0 (0.0) n (%); Dizziness, ≥ Grade 3 (50 mg (N = 4)): 0 (0.0) n (%); Drug-related TEAE: Grade 3 (50 mg (N = 4)): 0 (0.0) n (%); Drug-related TEAE: Leading to death (50 mg (N = 4)): 0 (0.0) n (%); Drug-related TEAE: Leading to dose reduction (50 mg (N = 4)): 0 (0.0) n (%); Drug-related TEAE: Leading to treatment discontinuation (50 mg (N = 4)): 0 (0.0) n (%); Drug-related TEAE: Leading to treatment interruption (50 mg (N = 4)): 0 (0.0) n (%); Drug-related TEAE: SAE (50 mg (N = 4)): 0 (0.0) n (%); Fatigue, Any Grade (50 mg (N = 4)): 0 (0.0) n (%); Fatigue, ≥ Grade 3 (50 mg (N = 4)): 0 (0.0) n (%); Gastrointestinal disorders, Any Grade (50 mg (N = 4)): 0 (0.0) n (%); Gastrointestinal disorders, ≥ Grade 3 (50 mg (N = 4)): 0 (0.0) n (%); General disorders and administration site conditions, Any Grade (50 mg (N = 4)): 0 (0.0) n (%); General disorders and administration site conditions, ≥ Grade 3 (50 mg (N = 4)): 0 (0.0) n (%); Headache, Any Grade (50 mg (N = 4)): 1 (25.0) n (%); Headache, ≥ Grade 3 (50 mg (N = 4)): 0 (0.0) n (%); Hemoglobin decreased, Any Grade (50 mg (N = 4)): 2 (50.0) n (%); Hemoglobin decreased, ≥ Grade 3 (50 mg (N = 4)): 0 (0.0) n (%); Investigations, Any Grade (50 mg (N = 4)): 3 (75.0) n (%); Investigations, ≥ Grade 3 (50 mg (N = 4)): 0 (0.0) n (%); Lipase increased, Any Grade (50 mg (N = 4)): 2 (50.0) n (%); Lipase increased, ≥ Grade 3 (50 mg (N = 4)): 0 (0.0) n (%); Malaise, Any Grade (50 mg (N = 4)): 0 (0.0) n (%); Malaise, ≥ Grade 3 (50 mg (N = 4)): 0 (0.0) n (%); Metabolism and nutrition disorders, Any Grade (50 mg (N = 4)): 1 (25.0) n (%); Metabolism and nutrition disorders, ≥ Grade 3 (50 mg (N = 4)): 0 (0.0) n (%); Musculoskeletal and connective tissue disorders, Any Grade (50 mg (N = 4)): 1 (25.0) n (%); Musculoskeletal and connective tissue disorders, ≥ Grade 3 (50 mg (N = 4)): 0 (0.0) n (%); Nausea, Any Grade (50 mg (N = 4)): 0 (0.0) n (%); Nausea, ≥ Grade 3 (50 mg (N = 4)): 0 (0.0) n (%)
